The target in one data set is T1, E. coli GroEL/ES (Escherichia coli, UniProt P0A6F5).
T1 construct: made in house; host or cells: GroEL in E. coli DH5α; GroES in E. coli BL21 (DE3)
Description: GroEL/ES-mediated dMDH refolding assay. It counts as biochemical. The note with it: for log(IC50) GroEL/ES-dMDH Refolding: log of IC50 (μM scale), with standard deviation. The method, then: Reagent preparation: For these assays, four primary reagent stocks were prepared: 1) GroEUES-dMDH or HSP60/10-dMDH binary complex stock; 2) ATP initiation stock; 3) EDTA quench stock; 4) MDH enzymatic assay stock. Denatured MDH (dMDH) was prepared by 2-fold dilution of MDH (5 mg/ml, soluble pig heart MDH from Roche, product #10127248001) with denaturant buffer (7 M guanidine-HCl, 200 mM Tris, pH 7.4, and 50 mM DTT). MDH was completely denatured by incubating at room temperature for 45 min. The binary complex solutions were prepared by slowly adding the dMDH stock to a stirring stock with GroEL (or HSP60) in folding buffer (50 mM Tris-HCl, pH 7.4, 50 mM KCl, 10 mM MgCl2, and 1 mM DTT), followed by addition of GroES (or HSP10). The binary complex stocks were prepared immediately prior to dispensing into the assay plates and had final protein concentrations of 83.3 nM GroEL (Mr 800 kDa) or HSP60 (Mr 400 kDa), 100 nM GroES or HSP10 (Mr 70 kDa), and 20 nM dMDH in folding buffer. For the ATP initiation stock, ATP solid was diluted into folding buffer to a final concentration of 2.5 mM. Quench solution contained 600 mM EDTA (pH 8.0). The MDH enzymatic assay stock consisted of 20 mM sodium mesoxalate and 2.4 mM NADH in reaction buffer (50 mM Tris-HCl, pH 7.4, 50 mM KCl, and 1 mM DTT).
Assay Protocol: First, 30 μL aliquots of the GroEL/ES-dMDH or HSP60/10-dMDH binary complex stocks were dispensed into clear, 384-well polystyrene plates. […] The chaperonin-mediated refolding cycles were initiated by addition of 20 μL of ATP stock (reagent concentrations during refolding cycle: 50 nM GroEL or HSP60, 60 nM GroES or HSP10, 12 nM dMDH, 1 mM ATP, and compounds of 100 μM to 46 nM, 3-fold dilution series). The refolding reactions were incubated at 37° C. […] Next, the assay was quenched by addition of 10 μL of the EDTA to final concentration of 100 mM. […] A340 nm measurements were recorded at 0.5 minutes (start point) and at successive time points until the amount of NADH consumed reached ˜90% (end point, generally between 20-35 minutes). The differences between the start and end point A340 values were used to calculate the % inhibition of the GroEL/ES or HSP60/10 machinery by the compounds. […] Results presented represent the averages of IC50 values obtained from at least quadriplicate (duplicate of duplicate) replicates.
After generating the compound library, we next employed a series of well-established biochemical assays to evaluate compound inhibitory effects against the GroEUES chaperonin system (See FIG. 6 and FIG. 7). We used E. coli GroEUES as the surrogate chaperonin system for refolding of the reporter enzymes malate dehydrogenase (MDH) and rhodanese (Rho). Briefly, binary complexes are formed between GroEL and denatured MDH or Rho, which are then refolded to their native states upon addition of ATP and the GroES co-chaperonin. Enzymatic activities of refolded native MDH or Rho act as coupled reporters of GroEUES refolding functions since in the presence of chaperonin inhibitors, no functional reporter enzymes are generated.

A further data set deals with T2, native Rho (rhodanese) (Bos taurus, UniProt P00586).
T2 construct: purchased Roche (so in the source) R1756
T2 sequence (P00586 1-297): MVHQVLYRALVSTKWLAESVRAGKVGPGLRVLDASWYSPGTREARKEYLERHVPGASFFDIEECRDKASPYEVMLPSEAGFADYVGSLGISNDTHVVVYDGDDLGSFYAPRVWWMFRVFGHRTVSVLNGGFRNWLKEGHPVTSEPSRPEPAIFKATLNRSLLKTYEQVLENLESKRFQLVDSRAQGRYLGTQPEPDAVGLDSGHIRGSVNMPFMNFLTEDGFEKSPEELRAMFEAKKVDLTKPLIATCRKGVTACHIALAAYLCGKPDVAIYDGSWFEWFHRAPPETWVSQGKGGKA
Description: Counter-screen for inhibition of native rhodanese enzymatic activity. The note with it: for log(IC50) Native Rho Reporter: log of IC50 (μM scale), with standard deviation; for IC50: read-out: Biochemical Assay IC50 Native Rho Reporter. The class given is biochemical. The method, then:
Reagent Preparations & Assay Protocol: Reagents were identical to those used in the GroEUES-dRho refolding assay described above; however, the assay protocol differed in the sequence of compound addition to the wells. Compounds were pin-transferred after the 60 minute incubation for the refolding cycle, but prior to the addition of the thiocyanate enzymatic assay stock. Thus, the refolding reactions were allowed to proceed for 60 min at 37° C. in the absence of test compounds, but the enzymatic activity of the refolded rhodanese reporter enzyme was monitored in the presence of test compounds (inhibitor concentration range during the enzymatic reporter reaction is 100 µM to 46 nM-3-fold dilutions). IC50 values for the rhodenase reporter enzyme were determined as described above. Results presented represent the averages of IC50 values obtained from at least quadriplicate (duplicate of duplicate) replicates.

Another data set is described as follows: in vitro. The note with it: human. The method, then:
HEK 293 cells were maintained in MEM medium (Corning Cellgro, 10-009 CV) supplemented with 10% FBS (Sigma, F2242). […] Cells at 80% confluence were harvested and diluted in growth medium, then 45 μL of the THLE-3 cells (1,500 cells/well) or HEK 293 cells (1,500 cells/well) were dispensed per well, and plates were sealed with “Breathe Easy” oxygen permeable membranes (Diversified Biotech) and incubated at 37° C., 5% CO2, for 24 h.

Where [1] appears, read: read-out: Biochemical Assay IC50 GroEL/ES-dMDH refolding.

Structures are written as SMILES. Where two headings read alike, the source gives them in different places.

T1 sequence (P0A6F5 2-548): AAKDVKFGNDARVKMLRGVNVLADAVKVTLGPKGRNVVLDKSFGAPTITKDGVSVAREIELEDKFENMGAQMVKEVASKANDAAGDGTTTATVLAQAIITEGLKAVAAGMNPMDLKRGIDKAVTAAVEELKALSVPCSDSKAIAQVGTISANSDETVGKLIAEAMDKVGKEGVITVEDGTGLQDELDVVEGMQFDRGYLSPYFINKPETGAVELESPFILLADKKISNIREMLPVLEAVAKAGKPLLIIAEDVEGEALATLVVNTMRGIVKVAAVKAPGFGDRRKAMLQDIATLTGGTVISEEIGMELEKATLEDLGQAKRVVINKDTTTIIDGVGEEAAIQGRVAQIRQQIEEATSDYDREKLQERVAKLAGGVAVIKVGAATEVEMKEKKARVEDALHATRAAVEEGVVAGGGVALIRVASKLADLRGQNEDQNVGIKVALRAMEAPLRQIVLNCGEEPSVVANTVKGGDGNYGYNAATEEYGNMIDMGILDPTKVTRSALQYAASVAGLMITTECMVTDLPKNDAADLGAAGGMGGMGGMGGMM

Consider `COc1ccccc1C(=O)Nc1cccc(Cl)c1` [Compound 40, N-(3-Chlorophenyl)-2-methoxybenzamide], for which, on E. coli GroEL/ES, the IC50 was above 100 µM and the “log(IC50) GroEL/ES-dMDH Refolding” value is on record as above 2. At native Rho (rhodanese), the “log(IC50) Native Rho Reporter” value is given as above 2 and the IC50 was above 100 µM. In the data set “in vitro”, the CC50 at 48 h is above 100 µM.

Turning to `COc1ccc(Br)cc1C(=O)Nc1ccc(Sc2nc3ccccc3s2)cc1` [Compound 35, N-(4-(Benzo[d]thiazol-2-ylthio)phenyl)-5-bromo-2-methoxybenzamide], the IC50 against E. coli GroEL/ES and on native Rho (rhodanese) was above 100 µM each time. In the data set “in vitro”, this compound came in with a CC50 at 48 h above 100 µM.

For the compound `COc1c(Br)cc(Br)cc1C(=O)Nc1ccc(Sc2nc3ccccc3s2)cc1` [Compound 33, N-(4-(Benzo[d]thiazol-2-ylthio)phenyl)-3,5-dibromo-2-methoxybenzamide], the IC50 on E. coli GroEL/ES and on native Rho (rhodanese) was above 100 µM each time. This compound also showed a CC50 at 48 h in the data set “in vitro” above 100 µM.

Consider `COc1c(Br)cc(Br)cc1C(=O)Nc1ccc(Sc2nc3ccccc3s2)c(Cl)c1` [Compound 29, N-(4-(Benzo[d]thiazol-2-ylthio)-3-chlorophenyl)-3,5-dibromo-2-methoxybenzamide], for which the IC50 against E. coli GroEL/ES and on native Rho (rhodanese) was above 100 µM in each case. Also, the CC50 at 48 h in “in vitro” was above 100 µM.

In the case of `CC1(C)S[C@@H]2[C@H](NC(=O)[C@H](N)c3ccccc3)C(=O)N2[C@H]1C(=O)O` [Ampicillin, ampicillin, reference compound], the “log(IC50) GroEL/ES-dMDH Refolding” value at E. coli GroEL/ES was above 2. In addition, the IC50 on E. coli GroEL/ES (setting [1]) and on native Rho (rhodanese) was above 100 µM throughout. In addition, the “log(IC50) Native Rho Reporter” value at native Rho (rhodanese) is above 2. In addition, the CC50 at 48 h in “in vitro” (THLE-3 liver cells) was above 100 µM.

For the compound `COc1ccccc1C(=O)Nc1ccc(Sc2nc3ccccc3s2)c(Cl)c1` [Compound 32, N-(4-(Benzo[d]thiazol-2-ylthio)-3-chlorophenyl)-2-methoxybenzamide], the IC50 on E. coli GroEL/ES and at native Rho (rhodanese) was above 100 µM in each case. In “in vitro”, this compound returned a CC50 at 48 h above 100 µM.

In the case of `COc1ccccc1C(=O)Nc1ccccc1` [Compound 44, 2-Methoxy-N-phenylbenzamide], at E. coli GroEL/ES, the IC50 was above 100 µM and the “log(IC50) GroEL/ES-dMDH Refolding” value is listed as above 2. Besides, at native Rho (rhodanese), the “log(IC50) Native Rho Reporter” value was above 2 and the IC50 was above 100 µM. In the data set “in vitro”, this compound had a CC50 at 48 h above 100 µM.

As to `COc1ccccc1C(=O)Nc1ccc(Sc2nc3ccccc3s2)cc1` [Compound 36, N-(4-(Benzo[d]thiazol-2-ylthio)phenyl)-2-methoxybenzamide], the IC50 against E. coli GroEL/ES and at native Rho (rhodanese) was above 100 µM each time. This compound displayed a CC50 at 48 h in the data set “in vitro” above 100 µM.

On to `O=C(Nc1ccccc1)c1cc(Br)cc(Br)c1O` [Compound 13, 3,5-Dibromo-2-hydroxy-N-phenylbenzamide], for which, at E. coli GroEL/ES, the “log(IC50) GroEL/ES-dMDH Refolding” value stood at 1.79 ± 0.10. Also, the IC50 on E. coli GroEL/ES (setting [1]) turned out to be 61 µM. Further, at native Rho (rhodanese), the “log(IC50) Native Rho Reporter” value is above 2 and the IC50 is above 100 µM. The CC50 at 48 h in the data set “in vitro” (THLE-3 liver cells) was 25.1 µM.

For `Cc1cc(C(C#N)c2ccc(Cl)cc2)c(Cl)cc1NC(=O)c1cc(I)cc(I)c1O` (centres unmarked) [Closantel, closantel, reference compound], the IC50 was 2.24 µM against E. coli GroEL/ES, 2.2 µM on E. coli GroEL/ES (setting [1]) and above 100 µM at native Rho (rhodanese). Further, the “inhibition in the GroEL/ES-mediated refolding assays (in words)” value at E. coli GroEL/ES (dMDH and dRho refolding assays) was “potent GroEUES inhibitors”. In addition, the “log(IC50) Native Rho Reporter” value on native Rho (rhodanese) is given as above 2. In addition, the CC50 at 48 h in the data set “in vitro” was 52.5 µM.

As to `COc1c(Br)cc(Br)cc1C(=O)Nc1cccc(Cl)c1` [Compound 37, 3,5-Dibromo-N-(3-chlorophenyl)-2-methoxybenzamide], at E. coli GroEL/ES, the IC50 is above 100 µM and the “log(IC50) GroEL/ES-dMDH Refolding” value is on record as above 2. On native Rho (rhodanese), the “log(IC50) Native Rho Reporter” value is above 2 and the IC50 is above 100 µM. In addition, the CC50 at 48 h in the data set “in vitro” is above 100 µM.

Take `COc1ccc(Br)cc1C(=O)Nc1ccccc1` [Compound 43, 5-Bromo-2-methoxy-N-phenylbenzamide]: at E. coli GroEL/ES, the IC50 is above 100 µM and the “log(IC50) GroEL/ES-dMDH Refolding” value is given as above 2. Further, at native Rho (rhodanese), the “log(IC50) Native Rho Reporter” value is recorded as above 2 and the IC50 is above 100 µM. The compound further gave a CC50 at 48 h in “in vitro” above 100 µM.

As for `COc1c(Br)cccc1C(=O)Nc1cccc(Cl)c1` [Compound 38], on E. coli GroEL/ES, the IC50 is above 100 µM and the “log(IC50) GroEL/ES-dMDH Refolding” value is above 2. Moreover, at native Rho (rhodanese), the “log(IC50) Native Rho Reporter” value is reported as above 2 and the IC50 was above 100 µM. In the data set “in vitro”, this compound came in with a CC50 at 48 h above 100 µM.

The record behind these values is patent publication US20210395210A1, “INHIBITION OF BACTERIAL CHAPERONIN SYSTEMS” (THE TRUSTEES OF INDIANA UNIVERSITY, priority 2018, published 2021).
